Laboratory results from PubChem BioAssay (NCI).
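Five concentrations, 48 hours, 96-well plates. TGI marks complete inhibition of growth.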

Assays:
Assay in all cases: DTP human tumour cell line panel, 48 h
[1] = system: HL-60(TB) leukemia
[2] = system: SW-620 colon
[3] = system: OVCAR-8 ovarian
[4] = system: SR leukemia
[5] = system: UACC-62 melanoma
[6] = system: NCI-H23 lung
[7] = system: NCI-H522 lung
[8] = system: SF-268 CNS
[9] = system: MDA-MB-435
[10] = system: M14 melanoma
[11] = system: HOP-92 NSCLC
[12] = system: SK-OV-3 ovarian
[13] = system: COLO 205 colon
[14] = system: SK-MEL-28 melanoma
[15] = system: KM12 colon
[16] = system: U251 CNS
[17] = system: NCI-H226 lung
[18] = system: HOP-62 NSCLC
[19] = system: PC-3 prostate
[20] = system: HS 578T breast
[21] = system: TK-10 renal
[22] = system: SN12C renal
[23] = system: NCI-H460 lung
[24] = system: SK-MEL-5 melanoma
[25] = system: A549 NSCLC
[26] = system: RPMI-8226 leukemia
[27] = system: BT-549 breast
[28] = system: MDA-MB-231 breast
[29] = system: 786-0 renal
[30] = system: SF-295 CNS
[31] = system: OVCAR-5 ovarian
[32] = system: OVCAR-3 ovarian
[33] = system: ACHN renal
[34] = system: HCT-116 colon
[35] = system: SNB-75 CNS
[36] = system: T-47D breast
[37] = system: K-562 leukemia
[38] = system: UACC-257 melanoma
[39] = system: DU-145 prostate
[40] = system: SF-539 CNS
[41] = system: RXF 393 renal
[42] = system: UO-31 renal
[43] = system: SK-MEL-2 melanoma
[44] = system: MOLT-4 leukemia
[45] = system: IGROV1 ovarian
[46] = system: HT29 colon
[47] = system: MALME-3M melanoma
[48] = system: HCT-15 colon
[49] = system: EKVX NSCLC
[50] = system: MCF7 breast
[51] = system: NCI/ADR-RES ovarian
[52] = system: A498 renal
[53] = system: OVCAR-4 ovarian
[54] = system: SNB-19 CNS
[55] = system: CAKI-1 renal

**Q.** What does the source list for `Cn1c(C(C)(C)OC(=O)Oc2ccccc2)cnc1[N+](=O)[O-]`?
**A.** TGI [1]: > 100 µM; TGI [2]: > 100 µM; TGI [3]: > 100 µM; TGI [4]: 51.7 µM; TGI [5]: > 100 µM; TGI [6]: > 100 µM; TGI [7]: > 100 µM; TGI [8]: > 100 µM; TGI [9]: > 100 µM; TGI [10]: > 100 µM; TGI [11]: > 100 µM; TGI [12]: > 100 µM; TGI [13]: > 100 µM; TGI [14]: > 100 µM; TGI [15]: > 100 µM; TGI [16]: > 100 µM; TGI [17]: > 100 µM; TGI [18]: > 100 µM; TGI [19]: > 100 µM; TGI [20]: > 100 µM; TGI [21]: > 100 µM; TGI [22]: > 100 µM; TGI [23]: > 100 µM; TGI [24]: > 100 µM; TGI [25]: > 100 µM; TGI [26]: 77.1 µM; TGI [27]: > 100 µM; TGI [28]: > 100 µM; TGI [29]: > 100 µM; TGI [30]: > 100 µM; TGI [31]: > 100 µM; TGI [32]: > 100 µM; TGI [33]: > 100 µM; TGI [34]: > 100 µM; TGI [35]: > 100 µM; TGI [36]: > 100 µM; TGI [37]: > 100 µM; TGI [38]: > 100 µM; TGI [39]: > 100 µM; TGI [40]: > 100 µM; TGI [41]: > 100 µM; TGI [42]: > 100 µM; TGI [43]: > 100 µM; TGI [44]: 45.8 µM; TGI [45]: > 100 µM; TGI [46]: > 100 µM; TGI [47]: > 100 µM; TGI [48]: > 100 µM; TGI [49]: > 100 µM; TGI [50]: > 100 µM; TGI [51]: > 100 µM; TGI [52]: > 100 µM; TGI [53]: > 100 µM; TGI [54]: > 100 µM; TGI [55]: > 100 µM
